We go through 1 compound from patent publication US12208164B2, “Modular metal-organic polyhedra superassembly compositions” (UNM Rainforest Innovations, priority 2019, dated 2025).

The test system of the assay is A549 cells. The assay is described as follows: Targeted cell killing efficacy, viability of A549 cells. It counts as cell-based, human. Conditions: incubated 2 hours, series of concentrations. The method, then: Cell viability of the constructed nanocarriers was assessed by CellTiter-Glo 2.0 assay. […] Then, 100 μL of the samples was added into a white 96-well plate. Subsequently, 100 μL CellTiter-Glo 2.0 reagent was dispensed into each well. The luminescence was recorded 10 minutes after addition of CellTiter-Glo 2.0 reagent by a BioTek microplate reader. Cell viability was calculated as a percentage of mammalian cells in the absence of nanocarriers.

With `COc1cccc2c1C(=O)c1c(O)c3c(c(O)c1C2=O)C[C@@](O)(C(=O)CO)C[C@@H]3O[C@H]1C[C@H](N)[C@H](O)[C@H](C)O1` [free DOX, doxorubicin], the “toxicity to A549 cells” value was “dose-dependent toxicity”.
